The term EC50 denotes the midpoint of the concentration-response curve. Low values mean an effect from little substance, high ones a need for much substance.

Positions of bridges follow the written chain, without caps; N, C: chain ends. Residues, ends and D or L forms follow the SMILES beside them.

The test system of assay [1] is Omicron BA.2 S pseudotyped virus on VeroE6 cells. It is filed as cell-based, SARS-CoV-2.
In assay [2] the test system is SARS-CoV-2 S (Wuhan-Hu-1) pseudo-typed VSV on VeroE6 cells. It is filed as cell-based.
Assay [3] has as its system Delta (B.1.617.2) S pseudotyped virus on VeroE6 cells. It is filed as cell-based, SARS-CoV-2.
In assay [4] the test system is Omicron (B.1.1.529) BA.1 S pseudotyped virus on VeroE6 cells. It is filed as cell-based, SARS-CoV-2.
The subject of assay [5] is SARS-CoV-2 ancestral Wuhan strain in HEK293 ACE2+ TMPRSS2+ cells. The following applies: 24 h.
For assay [6], the system named is Alpha (B.1.1.7) S pseudotyped virus on VeroE6 cells. It is filed as cell-based, SARS-CoV-2.
Assay [7] concerns Beta (B.1.351) S pseudotyped virus on VeroE6 cells. It is filed as cell-based, SARS-CoV-2.
The test system of assay [8] is SARS1-S pseudovirus on VeroE6 cells. It is filed as cell-based.
Assay [9] relates to WIV-16-S pseudovirus on VeroE6 cells. It is filed as cell-based.
For assay [10], the system named is Omicron BA.1 and BA.2. The following applies: cited from earlier work.
Assay [11] relates to Omicron BA.1. As to conditions: cited from earlier work.
Assay [12] has as its system Omicron BA.2. The following applies: cited from earlier work.

Turning to `CC[C@H](C)[C@@H]1NC(=O)[C@H](CCC(N)=O)NC(=O)[C@H](CCC(=O)O)NC(=O)[C@H](CCCNC(=N)N)NC(=O)[C@@H]2CCCN2C(=O)[C@H](CCCNC(=N)N)NC(=O)[C@H](CCCNC(=N)N)NC(=O)[C@H](Cc2ccc(O)cc2)NC(=O)CSC[C@@H](C(=O)NCC(N)=O)NC(=O)[C@H](Cc2ccccc2)NC(=O)[C@H](C(C)C)NC(=O)[C@H](Cc2c[nH]c3ccccc23)NC(=O)[C@H](CC(C)C)NC(=O)[C@H](CO)NC(=O)CNC(=O)[C@H]([C@@H](C)CC)NC(=O)[C@H]([C@@H](C)CC)NC1=O` [Peptide S1b3inL1] ({CH2CO}-YRRPREQIIIGSLWVFCG-NH2; thioether N-17), the “fluctuation of EC50, Omicron BA.2” value in assay [1] is reported as 2.1 fold. Moreover, the “pseudoviral neutralization activity (in words)” value in assay [2] is “submicromolar concentrations”. Also, the “fluctuation of EC50, Delta” value in assay [3] is recorded as 2.1 fold. In addition, the “fluctuation of EC50, Omicron BA.1” value in assay [4] came out at 3.1 fold. The molecule also displayed an EC50 in assay [5] of 5.2 µM. In assay [6], the “fluctuation of EC50, Alpha” value stood at 1.5 fold. Besides, the “fluctuation of EC50, Beta” value in assay [7] is 3.1 fold. Further, the “change of infection inhibition, SARS1-S” value in assay [8] turned out to be 1.3 fold. The “change of infection inhibition, WIV-16-S” value in [9] came to 4.1 fold.
On to Cilgavimab [reference compound], for which the decrease in activity in assay [10] is on record as 20 fold.
Turning to Sotrovimab, the “loss in potency against Omicron BA.1” value in [11] is “threefold”. In addition, in assay [12], the “loss in potency against Omicron BA.2” value is 27 fold.

(Values after PMC10293842 (Proceedings of the National Academy of Sciences of the …, 2023).)
